Measurements: US10344017B2, “Pyrrolcarboxamide derivatives for the inhibition of ERK5” (CANCER RESEARCH TECHNOLOGY LIMITED, priority 2014, dated 2019)

Target: T1, ERK5 (Homo sapiens, UniProt Q13164)
T1 construct: made in house
Test: ERK5 IMAP assay (fluorescence polarisation)
Format: biochemical
Conditions: average (e.g. geometric mean) where more than one data point; read-out: ERK5 IC50
Experimental: The assay buffer was prepared using 0.01% Tween®-20 5× stock, supplied as part of IMAP™ FP Progressive Binding System Kit (Molecular Devices R7436) and diluted to 1× using miliQ H2O. 1 μL of a 1M DTT stock was added for every 1 mL of 1× assay buffer to give a final concentration of 1 mM DTT.
ERK5 was expressed and purified at CRT-DL by Leon Pang and Sue Young. Aliquots were stored at −80° C. The ERK5 working solution was used at a […] final dilution in assay buffer. […] For 1 plate, […] of ERK5 stock was added to 2262 μL of 1× assay buffer.
To prepare the IMAP™ binding solution for one plate 20.5 μL of IMAP™ binding reagent stock, 1476 μL of 1× binding buffer A (60%), and 984 μL of binding buffer B (40%) (IMAP™ FP Progressive screening express kit (Molecular Devices R8127) was added to 9819.5 μL of milliQ H2O.
1 μL of inhibitor (in 60:40 H2O/DMSO) or 60:40 H2O/DMSO (for controls and blanks) were dry-spotted into the relevant wells of a 384-well assay plate using the MATRIX PlateMate® Plus. 5 μL of ERK5 working solution was added to test and control wells, and 5 μL of 1× assay buffer added to blanks; 4 μL of ATP/substrate working solution was added to all wells using a Matrix multichannel pipette. The plate was sealed using DMSO resistant clear seal and incubated for 2 h at 37° C. 1 μL of the kinase reaction mixture from the first plate was dry spotted into a second 384-well assay plate using the MATRIX PlateMate® Plus. 9 μL of assay buffer was added, followed by 30 μL of IMAP™ binding solution using a multichannel pipette. The plate was incubated at RT in darkness for 2 h. The assay plate was then read on an Analyst HT plate reader (Molecular Devices) using the settings described below: […]

T1 sequence (Q13164 whole entry): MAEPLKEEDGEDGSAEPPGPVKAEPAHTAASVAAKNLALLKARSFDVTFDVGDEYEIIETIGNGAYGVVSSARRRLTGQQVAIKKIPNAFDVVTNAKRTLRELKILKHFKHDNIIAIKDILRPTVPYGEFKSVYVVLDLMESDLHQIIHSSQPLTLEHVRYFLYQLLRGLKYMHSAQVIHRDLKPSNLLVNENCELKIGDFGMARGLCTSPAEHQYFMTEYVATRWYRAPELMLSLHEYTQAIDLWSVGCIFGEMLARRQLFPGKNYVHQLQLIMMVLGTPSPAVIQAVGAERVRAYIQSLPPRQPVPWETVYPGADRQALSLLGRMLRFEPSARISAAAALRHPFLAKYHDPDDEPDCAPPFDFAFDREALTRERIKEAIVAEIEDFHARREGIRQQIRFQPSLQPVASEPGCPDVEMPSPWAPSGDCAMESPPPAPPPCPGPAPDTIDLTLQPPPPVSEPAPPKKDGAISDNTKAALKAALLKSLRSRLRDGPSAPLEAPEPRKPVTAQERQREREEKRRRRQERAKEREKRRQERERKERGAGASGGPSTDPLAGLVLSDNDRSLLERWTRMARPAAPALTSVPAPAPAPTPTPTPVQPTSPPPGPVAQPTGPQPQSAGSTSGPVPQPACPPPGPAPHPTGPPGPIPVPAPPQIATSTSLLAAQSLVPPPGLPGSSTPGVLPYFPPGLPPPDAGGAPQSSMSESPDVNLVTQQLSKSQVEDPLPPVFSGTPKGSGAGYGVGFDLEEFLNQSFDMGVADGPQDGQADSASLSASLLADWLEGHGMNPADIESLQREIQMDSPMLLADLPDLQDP

| SMILES | IC50 [nM] |
| --- | --- |
| C=Cc1ccc(F)c(C(=O)c2c[nH]c(C(=O)NC3CCN(C)CC3)c2)c1F [Ex 167] | 643 |
| CC(C)N1CCC(NC(=O)c2cc(C(=O)c3c(F)cccc3Cl)c[nH]2)CC1 [Example 1, 4-(2-Chloro-6-fluorobenzoyl)-N-(1-isopropylpiperidin-4-yl)-1H-pyrrole-2-carboxamide] | 657 |
| CC(C)(C)OC(=O)N1CCC(NC(=O)c2cc(C(=O)c3c(Cl)ccc(Cl)c3F)c[nH]2)CC1 [Example 2, tert-Butyl 4-(4-(3,6-dichloro-2-fluorobenzoyl)-1H-pyrrole-2-carboxamido)piperidine-1-carboxylate] | 1350 |
| CCN1CCC(NC(=O)c2cc(C(=O)c3c(F)cccc3Cl)c[nH]2)CC1 [Example 5, 4-(2-Chloro-6-fluorobenzoyl)-N-(1-ethylpiperidin-4-yl)-1H-pyrrole-2-carboxamide] | 437 |
| CC(=O)N1CCC(NC(=O)c2cc(C(=O)c3c(F)cccc3Cl)c[nH]2)CC1 [Example 6, N-(1-Acetylpiperidin-4-yl)-4-(2-chloro-6-fluorobenzoyl)-1H-pyrrole-2-carboxamide] | 459 |
| CS(=O)(=O)N1CCC(NC(=O)c2cc(C(=O)c3c(F)cccc3Cl)c[nH]2)CC1 [Example 8, 4-(2-Chloro-6-fluorobenzoyl)-N-(1-(methylsulfonyl)piperidin-4-yl)-1H-pyrrole-2-carboxamide] | 298 |
| O=C(NC1CCN(c2ncccn2)CC1)c1cc(C(=O)c2c(F)cccc2Cl)c[nH]1 [Example 10, 4-(2-Chloro-6-fluorobenzoyl)-N-(1-(pyrimidin-2-yl)piperidin-4-yl)-1H-pyrrole-2-carboxamide] | 264 |
| O=C(NC1CCN(C(=O)C(F)(F)F)CC1)c1cc(C(=O)c2c(Cl)ccc(Cl)c2F)c[nH]1 [Example 11, 4-(3,6-Dichloro-2-fluorobenzoyl)-N-(1-(2,2,2-trifluoroacetyl)piperidin-4-yl)-1H-pyrrole-2-carboxamide] | 521 |
| CNc1ncc(NC(=O)c2cc(C(=O)c3c(F)cccc3Cl)c[nH]2)cn1 [Example 12, 4-(2-Chloro-6-fluorobenzoyl)-N-(2-(methylamino)pyrimidin-5-yl)-1H-pyrrole-2-carboxamide] | 1750 |
| O=C(Nc1cnc(N2CCCC2)nc1)c1cc(C(=O)c2c(F)cccc2Cl)c[nH]1 [Example 14, 4-(2-Chloro-6-fluorobenzoyl)-N-(2-(pyrrolidin-1-yl)pyrimidin-5-yl)-1H-pyrrole-2-carboxamide] | 4110 |
| O=C(Nc1cnc(N2CCN(C3CC3)CC2)nc1)c1cc(C(=O)c2c(Cl)ccc(Cl)c2F)c[nH]1 [Example 17, N-(2-(4-cyclopropylpiperazin-1-yl)pyrimidin-5-yl)-4-(3,6-dichloro-2-fluorobenzoyl)-1H-pyrrole-2-carboxamide] | 1750 |
| O=C(Nc1cnc(N2CCOCC2)nc1)c1cc(C(=O)c2c(Cl)ccc(Cl)c2F)c[nH]1 [Example 20, 4-(3,6-Dichloro-2-fluorobenzoyl)-N-(2-morpholinopyrimidin-5-yl)-1H-pyrrole-2-carboxamide] | 1500 |
| CC(=O)OC1CCN(c2ncc(NC(=O)c3cc(C(=O)c4c(F)cccc4Cl)c[nH]3)cn2)CC1 [Example 21, 1-(5-(4-(2-Chloro-6-fluorobenzoyl)-1H-pyrrole-2-carboxamido)pyrimidin-2-yl)piperidin-4-yl acetate] | 5380 |
| CC(=O)OC1CCN(c2ncc(NC(=O)c3cc(C(=O)c4c(Cl)ccc(Cl)c4F)c[nH]3)cn2)CC1 [Example 22, 1-(5-(4-(3,6-Dichloro-2-fluorobenzoyl)-1H-pyrrole-2-carboxamido)pyrimidin-2-yl)piperidin-4-yl acetate] | 9660 |
| CN1CCC(Nc2ncc(NC(=O)c3cc(C(=O)c4c(F)cccc4Cl)c[nH]3)cn2)CC1 [Example 23, 4-(2-Chloro-6-fluorobenzoyl)-N-(2-((1-methylpiperidin-4-yl)amino)pyrimidin-5-yl)-1H-pyrrole-2-carboxamide] | 93 |
| O=C(Nc1cnc(N2CCNCC2)nc1)c1cc(C(=O)c2c(F)cccc2Cl)c[nH]1 [Example 26, 4-(2-Chloro-6-fluorobenzoyl)-N-(2-(piperazin-1-yl)pyrimidin-5-yl)-1H-pyrrole-2-carboxamide] | 88.8 |
| O=C(Nc1cnc(N2CCC(O)CC2)nc1)c1cc(C(=O)c2c(F)cccc2Cl)c[nH]1 [Example 28, 4-(2-Chloro-6-fluorobenzoyl)-N-(2-(4-hydroxypiperidin-1-yl)pyrimidin-5-yl)-1H-pyrrole-2-carboxamide] | 2230 |

| SMILES | IC50 [nM] |
| --- | --- |
| O=C(Nc1cnc(N2CCC(O)CC2)nc1)c1cc(C(=O)c2c(Cl)ccc(Cl)c2F)c[nH]1 [Example 29, 4-(3,6-Dichloro-2-fluorobenzoyl)-N-(2-(4-hydroxypiperidin-1-yl)pyrimidin-5-yl)-1H-pyrrole-2-carboxamide] | 537 |
| CN1CCC(Nc2ccc(NC(=O)c3cc(C(=O)c4c(Cl)ccc(Cl)c4F)c[nH]3)cn2)CC1 [Example 32, 4-(3,6-Dichloro-2-fluorobenzoyl)-N-(6-((1-methylpiperidin-4-yl)amino)pyridin-3-yl)-1H-pyrrole-2-carboxamide] | 23.8 |
| O=C(Nc1ccnc(Cl)c1)c1cc(C(=O)c2c(F)cccc2Cl)c[nH]1 [Example 34, 4-(2-Chloro-6-fluorobenzoyl)-N-(2-chloropyridin-4-yl)-1H-pyrrole-2-carboxamide] | 2320 |
| O=C(Nc1ccnc(N2CCCC2)c1)c1cc(C(=O)c2c(F)cccc2Cl)c[nH]1 [Example 35, 4-(2-Chloro-6-fluorobenzoyl)-N-(2-(pyrrolidin-1-yl)pyridin-4-yl)-1H-pyrrole-2-carboxamide] | 523 |
| CN1CCN(c2cc(NC(=O)c3cc(C(=O)c4c(F)cccc4Cl)c[nH]3)ccn2)CC1 [Example 36, 4-(2-Chloro-6-fluorobenzoyl)-N-(2-(4-methylpiperazin-1-yl)pyridin-4-yl)-1H-pyrrole-2-carboxamide] | 137 |
| CN1CCN(c2cc(NC(=O)c3cc(C(=O)c4c(Cl)ccc(Cl)c4F)c[nH]3)ccn2)CC1 [Example 37, 4-(3,6-Dichloro-2-fluorobenzoyl)-N-(2-(4-methylpiperazin-1-yl)pyridin-4-yl)-1H-pyrrole-2-carboxamide] | 36 |
| O=C(Nc1ccnc(N2CCOCC2)c1)c1cc(C(=O)c2c(Cl)ccc(Cl)c2F)c[nH]1 [Example 38, 4-(3,6-Dichloro-2-fluorobenzoyl)-N-(2-morpholinopyridin-4-yl)-1H-pyrrole-2-carboxamide] | 343 |
| COc1cc(NC(=O)c2cc(C(=O)c3c(F)cccc3Cl)c[nH]2)ccn1 [Example 40, 4-(2-Chloro-6-fluorobenzoyl)-N-(2-methoxypyridin-4-yl)-1H-pyrrole-2-carboxamide] | 1830 |
| O=C(Nc1cnn(C2CCN(CC(F)(F)F)CC2)c1)c1cc(C(=O)c2c(Cl)ccc(Cl)c2F)c[nH]1 [Example 42, 4-(3,6-Dichloro-2-fluorobenzoyl)-N-(1-(1-(2,2,2-trifluoroethyl)piperidin-4-yl)-1H-pyrazol-4-yl)-1H-pyrrole-2-carboxamide] | 3550 |
| CCN(CC)CCn1cc(NC(=O)c2cc(C(=O)c3c(Cl)ccc(Cl)c3F)c[nH]2)cn1 [Example 43, 4-(3,6-Dichloro-2-fluorobenzoyl)-N-(1-(2-(diethylamino)ethyl)-1H-pyrazol-4-yl)-1H-pyrrole-2-carboxamide] | 207 |
| CCn1cc(NC(=O)c2cc(C(=O)c3c(Cl)ccc(Cl)c3F)c[nH]2)cn1 [Example 46, 4-(3,6-Dichloro-2-fluorobenzoyl)-N-(1-ethyl-1H-pyrazol-4-yl)-1H-pyrrole-2-carboxamide] | 66.5 |
| COCCn1cc(NC(=O)c2cc(C(=O)c3c(Cl)ccc(Cl)c3F)c[nH]2)cn1 [Example 47, 4-(3,6-Dichloro-2-fluorobenzoyl)-N-(1-(2-methoxyethyl)-1H-pyrazol-4-yl)-1H-pyrrole-2-carboxamide] | 75.2 |
| O=C(Nc1cnn(Cc2ccccn2)c1)c1cc(C(=O)c2c(Cl)ccc(Cl)c2F)c[nH]1 [Example 48, 4-(3,6-Dichloro-2-fluorobenzoyl)-N-(1-(pyridin-2-ylmethyl)-1H-pyrazol-4-yl)-1H-pyrrole-2-carboxamide] | 80.7 |
| O=C(Nc1cnn(Cc2cccnc2)c1)c1cc(C(=O)c2c(Cl)ccc(Cl)c2F)c[nH]1 [Example 49, 4-(3,6-Dichloro-2-fluorobenzoyl)-N-(1-(pyridin-3-ylmethyl)-1H-pyrazol-4-yl)-1H-pyrrole-2-carboxamide] | 20.2 |
| O=C(Nc1cnn(Cc2ccncc2)c1)c1cc(C(=O)c2c(Cl)ccc(Cl)c2F)c[nH]1 [Example 50, 4-(3,6-Dichloro-2-fluorobenzoyl)-N-(1-(pyridin-4-ylmethyl)-1H-pyrazol-4-yl)-1H-pyrrole-2-carboxamide] | 21 |
| Cn1ccnc1Cn1cc(NC(=O)c2cc(C(=O)c3c(Cl)ccc(Cl)c3F)c[nH]2)cn1 [Example 51, 4-(3,6-Dichloro-2-fluorobenzoyl)-N-(1-((1-methyl-1H-imidazol-2-yl)methyl)-1H-pyrazol-4-yl)-1H-pyrrole-2-carboxamide] | 17.6 |
